Laboratory results reported in patent US20240150423A1, “GLP-1 ANALOGUE-MODIFIED DIMERS WITH DIFFERENT CONFIGURATIONS, PREPARATION METHOD THEREOF, AND APPLICATION THEREOF IN TREATMENT OF TYPE II DIABETES” (Nanjing Finepeptide Biopharmaceutical Co.,Ltd, priority 2019, published 2024).

How the values were obtained:
[1] = tested on: Normal Kunming (KM) mice; assay: single oral glucose tolerance test (sOGTT); format: in vivo; conditions: after a single administration and oral glucose, tail blood at 0-120 min
From the text: • 1. Methods: Normal Kunming (KM) mice (purchased from Guangdong Animal Center) were used for oral glucose tolerance test (OGTT) to obtain the hypoglycemic activity and durability of drug. […] The blood glucose meter and blood glucose test paper were from Bayer […]. The average blood glucose of each group was used as an evaluation standard: When the average blood glucose of experimental group was higher than that of the NaCl control group for two times, the measurement stopped and the hypoglycemic period compared to the blank control group was the effective duration. • 2. Results • 2.1 single OGTTs: after a single administration, the mice were orally administered glucose once and measured the blood glucose from the tail blood at 0, 10, 20, 40, 60 and 120 min. […] The duration of each monomer group was about 1⁄2-1⁄4 of the duration of its corresponding dimer group. […] Therefore, the 2G3 peptide was selected for treating type II diabetes (T2D) in vivo and subsequent experiments.

[2] = tested on: Normal Kunming (KM) mice; assay: multiple OGTT (mOGTT): hypoglycemic duration after a single administration; format: in vivo; conditions: single injection at the same dose (1.126 nmol), subcutaneous
Summary of the method: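 Normal Kunming mice given a single dose, then oral glucose challenges; tail-blood glucose read by meter at 0, 10, 20, 40, 60 and 120 min. Duration scored as hypoglycemic period until group mean glucose exceeded the NaCl control twice.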

[3] = trial for 26 weeks; cited from earlier work
[4] = clinic trial for 24 weeks, once a day; cited from earlier work
[5] = T2D model treatment: body weight and organ weights; format: in vivo, C57B16/J mice; conditions: 2G1 study, 35 days
Procedure: C57B16/J mice were placed in an SPF-level environment with a standard diet. All experimental operations were performed in accordance with the guidelines of the ethics and uses of experimental animals. […] The NaCl-PB group served as blank control and the model control group served as the T2D model control. They were injected with NaCl-PB solution. The T2D model group was fed with 60 kcal % high-fat diet (D12492, Changzhou SYSE Bio-tech. Co., Ltd., China) until the end of the experiment. Meanwhile the blank control group maintained standard diet. […] These groups were subjected to a 35-day treatment study on the basis of the high-fat diet. • 1. […] The monomeric peptides were dissolved into a saline solution (pH 6.5) for injection. • 2. […] The models were measured blood glucose at the tail and weight weighted every morning at 9 am. […] In the T2D treatment study, all T2D model mice were injected subcutaneously at the back hip in 100 μl per mouse within 30 min. The blood glucose of the experimental mice was measured every five days and the whole measurement was completed within 40 min. […] No. 8-9695-03-201-1, Novo Nordisk company, Switzerland) until the end of the 35-day experiment. • 3.

[6] = high dose 3.378 nmol/100 μL once a day
[7] = low dose 0.375 nmol/100 μL once a day
[8] = medium dose and Liraglutide group 1.126 nmol/100 μL once a day

His-Ala-Glu-Gly-Thr-Phe-Thr-Ser-Asp-Val-Cys-Ser-Tyr-Leu-Glu-Gly-Gln-Ala-Ala-Lys[N-ϵ-(N-α-Palmitoyl-L-γ-glutamyl)]-Glu-Phe-Ile-Ala-Trp-Leu-Val-Arg-Gly-Arg-Gly-OH (HAEGTFTSDVCSYLEGQAAXEFIAWLVRGRG; palmitoyl-γ-glutamyl on Lys; C-terminal acid; Sequence is synthesized; (20)..(20) Xaa is Xaa is 26Lys[N-e-(N-a-Palmitoyl-g-glutamyl)]; (31)..(31) C-terminal) [G2 series 7]
glucose peak in single OGTT [1]: no blood glucose peak appeared

His-Ala-Glu-Gly-Thr-Phe-Thr-Ser-Asp-Val-Ser-Cys-Tyr-Leu-Glu-Gly-Gln-Ala-Ala-Lys[N-ϵ-(N-α-Palmitoyl-L-γ-glutamyl)]-Glu-Phe-Ile-Ala-Trp-Leu-Val-Arg-Gly-Arg-Gly-OH (HAEGTFTSDVSCYLEGQAAXEFIAWLVRGRG; palmitoyl-γ-glutamyl on Lys; C-terminal acid; Sequence is synthesized; (20)..(20) Xaa is 26Lys[N-e-(N-a-palmitoyl-L-g-glutamyl)]; (31)..(31) C-terminal) [G3 series 20]
glucose peak in single OGTT [1]: no blood glucose peak appeared | Hypoglycemic (day) ([2]; monomeric peptides): 4 (G3 peptide) day

Dulaglutide
body weight reduction [3]: 2.9 kg

2G4 series 38: disulfide-linked homodimer of monomer SEQ ID NO: 38 (HXEGTFTSDVSCYLEGQAAXEFIAWLVRGRG; disulfide-linked homodimer; Sequence is synthesized; (2)..(2) Xaa is bAib; (20)..(20) Xaa is 26Lys[N-e-(N-a-oleoyl-L-g-glutamyl)]; (31)..(31) N-terminal)
Hypoglycemic duration [2]: 17 days

Albiglutide
body weight reduction [3]: 0.6 kg

His-βAib-Glu-Gly-Thr-Phe-Thr-Ser-Asp-Val-Ser-Cys-Tyr-Leu-Glu-Gly-Gln-Ala-Ala-Lys[N-ϵ-(N-α-Palmitoyl-L-γ-glutamyl)]-Glu-Phe-Ile-Ala-Trp-Leu-Val-Lys[N-ϵ-(N-α-Palmitoyl-L-γ-glutamyl)]-Gly-Arg-Gly-NH2 (HXEGTFTSDVSCYLEGQAAXEFIAWLVXGRG; not fully specified; beta-Aib; two palmitoyl-gamma-Glu on Lys; C-terminal amide; Sequence is synthesized; (2)..(2) Xaa is bAib; (20)..(20) Xaa is 26Lys[N-e-(N-a-palmitoyl-L-g-glutamyl)]; (28)..(28) Xaa is 26Lys[N-e-(N-a-palmitoyl-L-g-glutamyl)]; (31)..(31) N-terminal) [G5 series 43]
Hypoglycemic ([2]; monomeric peptides): 3 days

His-Ala-Glu-Gly-Thr-Phe-Thr-Ser-Asp-Val-Cys-Ser-Tyr-Leu-Glu-Gly-Gln-Ala-Ala-Lys[N-ϵ-(N-α-oleoyl)]-Glu-Phe-Ile-Ala-Trp-Leu-Val-Arg-Gly-Arg-Gly-OH (HAEGTFTSDVCSYLEGQAAXEFIAWLVRGRG; oleoyl on Lys; C-terminal acid; Sequence is synthesized; (20)..(20) Xaa is 26Lys[N-e-(N-a-oleoyl-L-g-glutamyl)]; (31)..(31) C-terminal) [G4 series 26]
Hypoglycemic ([2]; monomeric peptides): 4 days

Lixisenatide
incidence of side reaction [4]: 2.5% | symptomatic hypoglycemia rate [4]: 3.4%

CCCCCCCCCCCCCCCC(=O)N[C@@H](CCC(=O)NCCCC[C@H](NC(=O)[C@H](C)NC(=O)[C@H](C)NC(=O)[C@H](CCC(N)=O)NC(=O)CNC(=O)[C@H](CCC(=O)O)NC(=O)[C@H](CC(C)C)NC(=O)[C@H](Cc1ccc(O)cc1)NC(=O)[C@H](CO)NC(=O)[C@H](CO)NC(=O)[C@@H](NC(=O)[C@H](CC(=O)O)NC(=O)[C@H](CO)NC(=O)[C@@H](NC(=O)[C@H](Cc1ccccc1)NC(=O)[C@@H](NC(=O)CNC(=O)[C@H](CCC(=O)O)NC(=O)[C@H](C)NC(=O)[C@@H](N)Cc1c[nH]cn1)[C@@H](C)O)[C@@H](C)O)C(C)C)C(=O)N[C@@H](CCC(=O)O)C(=O)N[C@@H](Cc1ccccc1)C(=O)N[C@H](C(=O)N[C@@H](C)C(=O)N[C@@H](Cc1c[nH]c2ccccc12)C(=O)N[C@@H](CC(C)C)C(=O)N[C@H](C(=O)N[C@@H](CCCNC(=N)N)C(=O)NCC(=O)N[C@@H](CCCNC(=N)N)C(=O)NCC(=O)N[C@@H](CSSC[C@H](NC(=O)CNC(=O)[C@H](CCCNC(=N)N)NC(=O)CNC(=O)[C@H](CCCNC(=N)N)NC(=O)[C@@H](NC(=O)[C@H](CC(C)C)NC(=O)[C@H](Cc1c[nH]c2ccccc12)NC(=O)[C@H](C)NC(=O)[C@@H](NC(=O)[C@H](Cc1ccccc1)NC(=O)[C@H](CCC(=O)O)NC(=O)[C@H](CCCCNC(=O)CC[C@H](NC(=O)CCCCCCCCCCCCCCC)C(=O)O)NC(=O)[C@H](C)NC(=O)[C@H](C)NC(=O)[C@H](CCC(N)=O)NC(=O)CNC(=O)[C@H](CCC(=O)O)NC(=O)[C@H](CC(C)C)NC(=O)[C@H](Cc1ccc(O)cc1)NC(=O)[C@H](CO)NC(=O)[C@H](CO)NC(=O)[C@@H](NC(=O)[C@H](CC(=O)O)NC(=O)[C@H](CO)NC(=O)[C@@H](NC(=O)[C@H](Cc1ccccc1)NC(=O)[C@@H](NC(=O)CNC(=O)[C@H](CCC(=O)O)NC(=O)[C@H](C)NC(=O)[C@@H](N)Cc1c[nH]cn1)[C@@H](C)O)[C@@H](C)O)C(C)C)[C@@H](C)CC)C(C)C)C(=O)O)C(=O)O)C(C)C)[C@@H](C)CC)C(=O)O [2G1]
Weight of organs, Heart [5, 6]: 0.121 ± 0.011a** g | Weight of organs, Left kidney [5, 6]: 0.166 ± 0.040 g | Weight of organs, Left testis [5, 6]: 0.086 ± 0.017 e* g | Weight of organs, Liver [5, 6]: 1.293 ± 0.273 c* g | Weight of organs, Lung [5, 6]: 0.144 ± 0.019 g | Weight of organs, Pancreas [5, 6]: 0.145 ± 0.032 c* g | Weight of organs, Right kidney [5, 6]: 0.175 ± 0.063 g | Weight of organs, Right testis [5, 6]: 0.096 ± 0.011 g | Weight of organs, Spleen [5, 6]: 0.095 ± 0.028 c* g | Weight of organs, adipose tissue [5, 6]: 1.311 ± 0.629 c* g | Weight of organs, Heart [5, 7]: 0.128 ± 0.023 g | Weight of organs, Left kidney [5, 7]: 0.156 ± 0.021 g | Weight of organs, Left testis [5, 7]: 0.094 ± 0.037 g | Weight of organs, Liver [5, 7]: 1.290 ± 0.163 a*c** g | Weight of organs, Lung [5, 7]: 0.146 ± 0.010 g | Weight of organs, Pancreas [5, 7]: 0.129 ± 0.2a**c*** g | Weight of organs, Right kidney [5, 7]: 0.147 ± 0.018 g | Weight of organs, Right testis [5, 7]: 0.100 ± 0.021 b* g | Weight of organs, Spleen [5, 7]: 0.107 ± 0.037 c* g | Weight of organs, adipose tissue [5, 7]: 1.202 ± 0.406 c** g | Weight of organs, Heart [5, 8]: 0.114 ± 0.010 a** g | Weight of organs, Left kidney [5, 8]: 0.157 ± 0.030 g | Weight of organs, Left testis [5, 8]: 0.100 ± 0.006 b** g | Weight of organs, Liver [5, 8]: 1.211 ± 0.114 c** g | Weight of organs, Lung [5, 8]: 0.139 ± 0.020 g | Weight of organs, Pancreas [5, 8]: 0.155 ± 0.033 c*d* g | Weight of organs, Right kidney [5, 8]: 0.139 ± 0.029 g | Weight of organs, Right testis [5, 8]: 0.095 ± 0.011 g | Weight of organs, Spleen [5, 8]: 0.101 ± 0.026 c* g | Weight of organs, adipose tissue [5, 8]: 1.263 ± 0.276 c*** g

His-Ala-Glu-Gly-Thr-Phe-Thr-Ser-Asp-Val-Cys-Ser-Tyr-Leu-Glu-Gly-Gln-Ala-Ala-Lys[N-ϵ-(N-α-oleoyl)]-Glu-Phe-Ile-Ala-Trp-Leu-Val-Arg-Gly-Arg-Gly-NH2 (HAEGTFTSDVCSYLEGQAAXEFIAWLVRGRG; oleoyl on Lys; C-terminal amide; Sequence is synthesized; (20)..(20) Xaa is 26Lys[N-e-(N-a-oleoyl-L-g-glutamyl)]; (31)..(31) N-terminal) [G4 series 27]
Hypoglycemic ([2]; monomeric peptides): 6 days
